Paper PMC5513091, “A novel Alzheimer’s disease drug candidate targeting inflammation and fatty acid metabolism” (Alzheimer's Research & Therapy, 2017)

Test system: plasma metabolites
Test: Metabolomic analysis of plasma
Type: in vivo, mice
Description: Metabolomic analyses were conducted at Metabolon (Durham, NC, USA) as described previously. For statistical analyses and data display, any missing values were assumed to be below the limits of detection and imputed with the compound minimum (minimum value imputation). An estimate of the FDR (Q value) was calculated to take into account the multiple comparisons that normally occur in metabolomics-based studies, with Q < 0.05 used as an indication of high confidence in a result. The MetaboAnalyst tool was used to generate heat maps.

[1] = AD mice fed CAD-31 200 ppm 3 months vs AD
[2] = WT control mice fed CAD-31 200 ppm 3 months vs control

Structure (SMILES): Cc1ccc(N(/N=C/c2cccc(OC(F)(F)F)c2)C(=O)C(F)(F)F)c(C)c1 [CAD-31]
- 1,2-dipalmitoyl-GPC (16:0/16:0) Fold Change AD+31/AD [1]: 1.12
- 1-arachidonoyl-GPC (20:4n6)* Fold Change AD+31/AD [1]: 1.17
- 1-myristoylglycerol (14:0) Fold Change AD+31/AD [1]: 0.94
- 1-oleoylglycerol (18:1) Fold Change AD+31/AD [1]: 1.17
- 1-palmitoyl-2-arachidonoyl-GPC (16:0/20:4n6) Fold Change AD+31/AD [1]: 1.19
- 1-palmitoyl-2-stearoyl-GPC (16:0/18:0) Fold Change AD+31/AD [1]: 1.23
- 1-stearoyl-GPE (18:0) Fold Change AD+31/AD [1]: 1.22
- 2-palmitoylglycerol (16:0) Fold Change AD+31/AD [1]: 1.22
- 3-acetylphenol sulfate Fold Change AD+31/AD [1]: 0.59
- 3-ethylphenylsulfate Fold Change AD+31/AD [1]: 2.39
- 3-hydroxy-3-methylglutarate Fold Change AD+31/AD [1]: 1.53
- 3-hydroxybutyrate (BHBA) Fold Change AD+31/AD [1]: 1.21
- 3-hydroxypyridine sulfate Fold Change AD+31/AD [1]: 1.07
- 3-indoxyl sulfate Fold Change AD+31/AD [1]: 1.15
- 4-hydroxyhippurate Fold Change AD+31/AD [1]: 0.73
- 4-hydroxyphenylpyruvate Fold Change AD+31/AD [1]: 1.05
- 5-hydroxyindoleacetate Fold Change AD+31/AD [1]: 1.01
- 5-oxoproline Fold Change AD+31/AD [1]: 1.02
- 7-ketodeoxycholate Fold Change AD+31/AD [1]: 0.18
- 9,10-DiHOME Fold Change AD+31/AD [1]: 0.99
- 10-heptadecenoate (17:1n7) Fold Change AD+31/AD [1]: 0.84
- 10-nonadecenoate (19:1n9) Fold Change AD+31/AD [1]: 0.87
- 10-undecenoate (11:1n1) Fold Change AD+31/AD [1]: 0.41
- 15-methylpalmitate Fold Change AD+31/AD [1]: 0.68
- 17-methylstearate Fold Change AD+31/AD [1]: 0.84
- N2-acetyllysine Fold Change AD+31/AD [1]: 1.12
- N-acetyl-3-methylhistidine* Fold Change AD+31/AD [1]: 0.86
- N-acetylmethionine Fold Change AD+31/AD [1]: 1.14
- N-acetylphenylalanine Fold Change AD+31/AD [1]: 1.1
- N-acetylserine Fold Change AD+31/AD [1]: 1.11
- N-carbamoylaspartate Fold Change AD+31/AD [1]: 1.97
- N-delta-acetylornithine Fold Change AD+31/AD [1]: 1.22
- N-palmitoyl-sphinganine (d18:0/16:0) Fold Change AD+31/AD [1]: 1.49
- N-stearoyl-sphingosine (d18:1/18:0)* Fold Change AD+31/AD [1]: 1.5
- acetylcarnitine Fold Change AD+31/AD [1]: 0.97
- alpha-tocopherol Fold Change AD+31/AD [1]: 1.29
- arabonate/xylonate Fold Change AD+31/AD [1]: 1.47
- asparagine Fold Change AD+31/AD [1]: 0.97
- beta-muricholate Fold Change AD+31/AD [1]: 0.41
- caffeic acid sulfate Fold Change AD+31/AD [1]: 1.19
- carnosine Fold Change AD+31/AD [1]: 0.68
- chenodeoxycholate Fold Change AD+31/AD [1]: 0.26
- choline phosphate Fold Change AD+31/AD [1]: 1.11
- creatine Fold Change AD+31/AD [1]: 1.02
- dihydroorotate Fold Change AD+31/AD [1]: 1.19
- dopamine sulfate (2) Fold Change AD+31/AD [1]: 2.01
- equol glucuronide Fold Change AD+31/AD [1]: 0.22
- ergothioneine Fold Change AD+31/AD [1]: 0.44
- erythritol Fold Change AD+31/AD [1]: 1.1
- erythronate* Fold Change AD+31/AD [1]: 1.14
- gamma-glutamylglutamate Fold Change AD+31/AD [1]: 0.97
- gamma-glutamylglutamine Fold Change AD+31/AD [1]: 0.99
- gamma-glutamylleucine Fold Change AD+31/AD [1]: 1.02
- gamma-glutamylmethionine Fold Change AD+31/AD [1]: 1.04
- gamma-glutamylphenylalanine Fold Change AD+31/AD [1]: 0.97
- gamma-glutamylthreonine Fold Change AD+31/AD [1]: 1.03
- gamma-glutamyltryptophan Fold Change AD+31/AD [1]: 0.78
- gamma-glutamyltyrosine Fold Change AD+31/AD [1]: 0.92
- glucuronate Fold Change AD+31/AD [1]: 1.18
- glutamate Fold Change AD+31/AD [1]: 0.99
- glutathione, oxidized (GSSG) Fold Change AD+31/AD [1]: 1.46
- glycosyl-N-palmitoyl-sphingosine (d18:1/16:0) Fold Change AD+31/AD [1]: 1.29
- glycosyl-N-stearoyl-sphingosine (d18:1/18:0) Fold Change AD+31/AD [1]: 1.42
- gulonate* Fold Change AD+31/AD [1]: 1.59
- hexanoylglycine Fold Change AD+31/AD [1]: 1.03
- indoleacetylglycine Fold Change AD+31/AD [1]: 0.89
- isobutyrylcarnitine Fold Change AD+31/AD [1]: 2.26
- linoleate (18:2n6) Fold Change AD+31/AD [1]: 0.98
- margarate (17:0) Fold Change AD+31/AD [1]: 0.9
- methionine sulfoxide Fold Change AD+31/AD [1]: 1.26
- methylmalonate (MMA) Fold Change AD+31/AD [1]: 1.15
- o-cresol sulfate Fold Change AD+31/AD [1]: 1.63
- oleoylcarnitine Fold Change AD+31/AD [1]: 0.94
- palmitoleoylcarnitine* Fold Change AD+31/AD [1]: 0.97
- palmitoyl dihydrosphingomyelin (d18:0/16:0)* Fold Change AD+31/AD [1]: 1.32
- palmitoyl sphingomyelin (d18:1/16:0) Fold Change AD+31/AD [1]: 1.22
- palmitoyl-palmitoyl-glycerol (16:0/16:0) [1]* Fold Change AD+31/AD [1]: 1.17
- pentadecanoate (15:0) Fold Change AD+31/AD [1]: 0.95
- phenol sulfate Fold Change AD+31/AD [1]: 1.03
- phenylpropionylglycine Fold Change AD+31/AD [1]: 2.89
- phosphoethanolamine Fold Change AD+31/AD [1]: 1.05
- pyridoxal Fold Change AD+31/AD [1]: 1.22
- pyridoxate Fold Change AD+31/AD [1]: 1.49
- pyruvate Fold Change AD+31/AD [1]: 1.04
- ribonate Fold Change AD+31/AD [1]: 1.53
- sphinganine-1-phosphate Fold Change AD+31/AD [1]: 1.45
- sphingosine Fold Change AD+31/AD [1]: 1.35
- stearidonate (18:4n3) Fold Change AD+31/AD [1]: 0.87
- suberate (octanedioate) Fold Change AD+31/AD [1]: 1.33
- sucrose Fold Change AD+31/AD [1]: 2.83
- tartronate (hydroxymalonate) Fold Change AD+31/AD [1]: 0.99
- taurine Fold Change AD+31/AD [1]: 0.91
- threonine Fold Change AD+31/AD [1]: 1.08
- tryptophan Fold Change AD+31/AD [1]: 0.91
- ursodeoxycholate Fold Change AD+31/AD [1]: 0.23
- 1,2-dipalmitoyl-GPC (16:0/16:0) Fold Change C+31/C [2]: 1.26
- 1-arachidonoyl-GPC (20:4n6)* Fold Change C+31/C [2]: 1.04
- 1-myristoylglycerol (14:0) Fold Change C+31/C [2]: 0.59
- 1-oleoylglycerol (18:1) Fold Change C+31/C [2]: 0.64
- 1-palmitoyl-2-arachidonoyl-GPC (16:0/20:4n6) Fold Change C+31/C [2]: 1.11
- 1-palmitoyl-2-stearoyl-GPC (16:0/18:0) Fold Change C+31/C [2]: 1.1
- 1-stearoyl-GPE (18:0) Fold Change C+31/C [2]: 1.01
- 2-palmitoylglycerol (16:0) Fold Change C+31/C [2]: 0.79
- 3-acetylphenol sulfate Fold Change C+31/C [2]: 0.21
- 3-ethylphenylsulfate Fold Change C+31/C [2]: 2.27
- 3-hydroxy-3-methylglutarate Fold Change C+31/C [2]: 0.99
- 3-hydroxybutyrate (BHBA) Fold Change C+31/C [2]: 1.83
- 3-hydroxypyridine sulfate Fold Change C+31/C [2]: 0.72
- 3-indoxyl sulfate Fold Change C+31/C [2]: 0.63
- 4-hydroxyhippurate Fold Change C+31/C [2]: 0.42
- 4-hydroxyphenylpyruvate Fold Change C+31/C [2]: 1.65
- 5-hydroxyindoleacetate Fold Change C+31/C [2]: 0.83
- 5-oxoproline Fold Change C+31/C [2]: 1.27
- 7-ketodeoxycholate Fold Change C+31/C [2]: 1.33
- 9,10-DiHOME Fold Change C+31/C [2]: 0.65
- 10-heptadecenoate (17:1n7) Fold Change C+31/C [2]: 0.51
- 10-nonadecenoate (19:1n9) Fold Change C+31/C [2]: 0.6
- 10-undecenoate (11:1n1) Fold Change C+31/C [2]: 0.75
- 15-methylpalmitate Fold Change C+31/C [2]: 0.52
- 17-methylstearate Fold Change C+31/C [2]: 0.62
- N2-acetyllysine Fold Change C+31/C [2]: 0.71
- N-acetyl-3-methylhistidine* Fold Change C+31/C [2]: 0.84
- N-acetylmethionine Fold Change C+31/C [2]: 1.6
- N-acetylphenylalanine Fold Change C+31/C [2]: 1.41
- N-acetylserine Fold Change C+31/C [2]: 1.09
- N-carbamoylaspartate Fold Change C+31/C [2]: 0.54
- N-delta-acetylornithine Fold Change C+31/C [2]: 1.42
- N-palmitoyl-sphinganine (d18:0/16:0) Fold Change C+31/C [2]: 1.08
- N-stearoyl-sphingosine (d18:1/18:0)* Fold Change C+31/C [2]: 1.12
- acetylcarnitine Fold Change C+31/C [2]: 1.65
- alpha-tocopherol Fold Change C+31/C [2]: 1.05
- arabonate/xylonate Fold Change C+31/C [2]: 0.83
- asparagine Fold Change C+31/C [2]: 1.48
- beta-muricholate Fold Change C+31/C [2]: 1.78
- caffeic acid sulfate Fold Change C+31/C [2]: 2.12
- carnosine Fold Change C+31/C [2]: 0.62
- chenodeoxycholate Fold Change C+31/C [2]: 0.67
- choline phosphate Fold Change C+31/C [2]: 1.53
- creatine Fold Change C+31/C [2]: 1.23
- dihydroorotate Fold Change C+31/C [2]: 2.98
- dopamine sulfate (2) Fold Change C+31/C [2]: 0.94
- equol glucuronide Fold Change C+31/C [2]: 0.18
- ergothioneine Fold Change C+31/C [2]: 0.68
- erythritol Fold Change C+31/C [2]: 1.06
- erythronate* Fold Change C+31/C [2]: 1.02
- gamma-glutamylglutamate Fold Change C+31/C [2]: 2.69
- gamma-glutamylglutamine Fold Change C+31/C [2]: 1.94
- gamma-glutamylleucine Fold Change C+31/C [2]: 1.86
- gamma-glutamylmethionine Fold Change C+31/C [2]: 2.24
- gamma-glutamylphenylalanine Fold Change C+31/C [2]: 1.84
- gamma-glutamylthreonine Fold Change C+31/C [2]: 2.07
- gamma-glutamyltryptophan Fold Change C+31/C [2]: 1.81
- gamma-glutamyltyrosine Fold Change C+31/C [2]: 2.33
- glucuronate Fold Change C+31/C [2]: 1.04
- glutamate Fold Change C+31/C [2]: 1.71
- glutathione, oxidized (GSSG) Fold Change C+31/C [2]: 2.09
- glycosyl-N-palmitoyl-sphingosine (d18:1/16:0) Fold Change C+31/C [2]: 1.25
- glycosyl-N-stearoyl-sphingosine (d18:1/18:0) Fold Change C+31/C [2]: 0.76
- gulonate* Fold Change C+31/C [2]: 1.01
- hexanoylglycine Fold Change C+31/C [2]: 2.77
- indoleacetylglycine Fold Change C+31/C [2]: 0.57
- isobutyrylcarnitine Fold Change C+31/C [2]: 5.46
- linoleate (18:2n6) Fold Change C+31/C [2]: 0.67
- margarate (17:0) Fold Change C+31/C [2]: 0.6
- methionine sulfoxide Fold Change C+31/C [2]: 1.52
- methylmalonate (MMA) Fold Change C+31/C [2]: 0.87
- o-cresol sulfate Fold Change C+31/C [2]: 0.93
- oleoylcarnitine Fold Change C+31/C [2]: 1.42
- palmitoleoylcarnitine* Fold Change C+31/C [2]: 1.81
- palmitoyl dihydrosphingomyelin (d18:0/16:0)* Fold Change C+31/C [2]: 1.09
- palmitoyl sphingomyelin (d18:1/16:0) Fold Change C+31/C [2]: 1.05
- palmitoyl-palmitoyl-glycerol (16:0/16:0) [1]* Fold Change C+31/C [2]: 0.51
- pentadecanoate (15:0) Fold Change C+31/C [2]: 0.71
- phenol sulfate Fold Change C+31/C [2]: 0.59
- phenylpropionylglycine Fold Change C+31/C [2]: 3.88
- phosphoethanolamine Fold Change C+31/C [2]: 1.64
- pyridoxal Fold Change C+31/C [2]: 1.54
- pyridoxate Fold Change C+31/C [2]: 1.33
- pyruvate Fold Change C+31/C [2]: 1.2
- ribonate Fold Change C+31/C [2]: 1.07
- sphinganine-1-phosphate Fold Change C+31/C [2]: 2.52
- sphingosine Fold Change C+31/C [2]: 1.14
- stearidonate (18:4n3) Fold Change C+31/C [2]: 0.65
- suberate (octanedioate) Fold Change C+31/C [2]: 1.17
- sucrose Fold Change C+31/C [2]: 2.7
- tartronate (hydroxymalonate) Fold Change C+31/C [2]: 1.47
- taurine Fold Change C+31/C [2]: 1.26
- threonine Fold Change C+31/C [2]: 1.42
- tryptophan Fold Change C+31/C [2]: 1.12
- ursodeoxycholate Fold Change C+31/C [2]: 0.49
